From patent US7385039B2, “Methods and compositions for regulating imidazoline receptors” (priority 1998, dated 2008)
Values joined by “and” are separate entries in the source; they are usually repeats but may differ in a detail not shown here. Equal values may be shown once. “Also recorded” adds a separate entry of the source. Read-outs that look alike come from different tables or passages of the source.

Tests used:
[1] = test system: I3R; experiment: I3R model: insulin release from human islets; assay type: cell-based
Method: (§1) Islets of Langerhans from male Wistar rats were isolated by collagenase digestion in a medium of bicarbonate-buffered physiological saline solution containing 4 mM D-glucose and 1 mM CaCl2. Islets were selected under a binocular dissecting microscope and were used within two hours of isolation. Islets from humans were isolated from heart-beating cadaver organ donors by collagenase digestion and density gradient centrifugation (Chan, S. L. F., et al., 1997, Brit. J. Pharmacol. 120:926-932).
Incubations were done in 96-well plates. Isolated islets were incubated in 100 μl buffer solution supplemented with bovine serum albumin in humidified air: CO2 (95:5%) at 37° C. in the presence of test agents. To eliminate any potential alpha-2 responses, yohimbine (10 μM), a potent alpha2-adrenergic blocker, was included in all incubations. After 60 min incubation, samples of medium were removed for measurement of insulin release by radioimmunoassay using anti-bovine insulin antiserum. […]
I3R model: Insulin release from pancreas (Eglen, R. M., Hudson, A. L., Kendall, D. A., Nutt, D. J., Morgan, N. G., Wilson, V. G. & Dillon, M. P. (1998) TIPS 19, 381-390; Chan, S. L. F. (1998) Gen. Pharmacol. 31, 525-529; Morgan, N. G. (1999) Exp. Opin. Invest. Drugs 8, 575-584). […] After incubation, insulin levels in supernatants were analyzed by RIA. […]

[2] = test system: I3R; experiment: I3R model: insulin release from rat islets of Langerhans; assay type: cell-based
Method: as §1
Incubations were done in 96-well plates. Isolated islets were incubated in 100 μl buffer solution supplemented with bovine serum albumin in humidified air: CO2 (95:5%) at 37° C. in the presence of test agents. To eliminate any potential alpha-2 responses, yohimbine (10 μM), a potent alpha2-adrenergic blocker, was included in all incubations. After 60 min incubation, samples of medium were removed for measurement of insulin release by radioimmunoassay using anti-bovine insulin antiserum. Presence of insulin in the test media were compared to controls; positive differences represented amounts of insulin released. In reversal experiments, diazoxide (e.g., 200 μM) was pre-incubated to block glucose-induced insulin release. In these studies, test reagents were used to determine if they were capable of overcoming diazoxide's inhibitory effects on K+ ATP channels, a well known action of imidazoline secretagogues in islet cells. For example, efaroxan (an inhibitor of I-1 responses in adrenal medullary cells) is a well known I-3 agonist, i.e., it stimulates (at 100 μM) release of insulin and overcomes diazoxide inhibition thus illustrating again the dictomy between I1 and I3 receptor subtypes.
I3R model: Insulin release from pancreas (Eglen, R. M., Hudson, A. L., Kendall, D. A., Nutt, D. J., Morgan, N. G., Wilson, V. G. & Dillon, M. P. (1998) TIPS 19, 381-390; Chan, S. L. F. (1998) Gen. Pharmacol. 31, 525-529; Morgan, N. G. (1999) Exp. Opin. Invest. Drugs 8, 575-584). Islets of Langerhans from male Wistar rats or human pancreata were isolated by collagenase digestion. Hand-picked islets were incubated in NaHCO3-buffered saline containing 1 mM CaCl2, 1 mg/ml BSA and test reagents. After incubation, insulin levels in supernatants were analyzed by RIA. The I3-blocker, KU-14R, served to verify I3R function.

[3] = test system: β-TC3 cells; experiment: Insulin release from insulinoma cells in culture; assay type: cell-based
[4] = test system: SH rats; experiment: Mean arterial pressure and heart rate after microinjection into the RVLM of rats; assay type: in vivo, rat
Method: Effects of ribotide on mean arterial pressure (MAP) and heart rate (HR). Bilateral I-4-AA-RP microinjections (60 nl, 100 nmol) into the RVLM of SH rats were performed (Emsberger, P. & Haxhiu, M. A. (1997) Am. J. Physiol. 273, R1572-R1579) after the sympatho-excitatory area was confirmed by showing glutamate-induced MAP elevation ≧30 mm Hg. MAP and HR values were measured every 5 min. After each experiment, the injection site was marked by infusion of rhodamine microspheres. Changes were assessed relative to baseline values by two-way repeated measures ANOVA and Dunnett's test. A second group of SH rats (injection controls) received vehicle injections to control for injection effects and for volume artifacts due to multiple injections. Vehicle contained 2 nmol rilmenidine, a sub-threshold dose, far below that known to cause any detectable effect (Gomez, R. E., Emsberger, P., Feinland, G. & Reis, D. J. (1991) Eur. J. Pharmacol. 195, 181-191). In a follow-up study, SH rats (N=6) were given I-4-AA-RP then moxonidine. When used alone, it reduces MAP to normotensive levels (Emsberger, P., Elliott, H. L., Weimann, H.-J., Raap, A., Haxhiu, M. A., Hofferber, E., Low-Kroger, A., Reid, J. L. & Mest, H. J. (1993) Cardiovas. Drug Rev. 11, 411-431).

[5] = test system: Imidazoline I Sites; experiment: [125I]p-iodoclonidine competition binding to bovine RVLM membranes, imidazoline sites; conditions: for Ki: read-out: Ki, Imidazoline I Sites
From the text: (§2) Whole bovine brains and adrenal glands were obtained from a local slaughterhouse. Brains were immediately placed on a chilled glass plate, washed with ice-cold Krebs'-Henseleit buffer, and dissected. The rostral medulla was isolated by transecting the brainstem rostrally at the posterior margin of the trapezoid body and caudally 1 cm caudal to the obex. The pia-arachnoid was removed, and the lateral medulla was isolated by a sagittal section through the lateral margin of the pyramids, and then bisected. The ventral half was defined as the ventrolateral medulla (VLM). Brain samples were transported on ice to the laboratory and processed immediately.
(§3) Fresh bovine VLM was homogenized by using a polytron (Tekmar Tissuemizer, setting 80 for 2×15 sec) in 20 volumes of ice-cold Hepes-buffered isotonic sucrose (pH brought to 7.4 with Tris base) containing the protease inhibitors (1,10)-phenanthroline (100 μM) and phenylmethylsulfonyl fluoride (50 μM) in order to inhibit degradation of receptor protein. Bovine adrenomedullary cells were homogenized in 15 ml Hepes-buffered isotonic sucrose by 10 strokes in a glass-glass hand-held homogenizer. All three homogenates were centrifuged at 1000×g for 5 min at 4° C. to remove nuclei and debris. The pellets (P1) were resuspended in 20 ml of homogenization buffer, and centrifuged again at 1000×g for 5 min. The combined supernatants were centrifuged at 48,000 g for 18 min at 4° C., and the resulting P2 pellet was resuspended in 10 to 25 volumes of 50 mM Tris-HCl buffer (pH 7.7) containing 5 mM EDTA. After recentrifugation at 48,000 g for 18 min, the resulting membrane pellet was resuspended in Tris-HCl containing 25 mM NaCl, preincubated for 30 min at 25° C., chilled on ice, centrifuged again, resuspended a final time in Tris-HCl alone, centrifuged, flash-frozen, and stored at −70° C. for up to three months.
(§4) Radioligand binding assays with [^3H]clonidine or [^125I]p-iodoclonidine for determination of specific membrane binding to VLM and renal medulla imidazoline sites and α2-adrenergic receptors were performed by a modification of methods previously described (Ernsberger P. et al., 1997, J. Hypertension 1997, 15:S9-S23). Membranes were slowly thawed and resuspended in Tris-Hepes buffer (5.0 mM; pH 7.7 at 25° C., containing 0.5 mM EDTA, 0.5 mM EGTA, and 0.5 mM MgCl2) at a concentration of 1 mg protein/ml for the VLM, 4 mg protein/ml for the renal medulla, and 0.2 mg protein/ml for adrenomedullary cells. Assays were conducted in a total volume of 250 μl in polypropylene 96-well plates (Beckman Macrowell), and each well contained 125 μl membrane suspension, 25 μl radioligand, and 100 μl drug or vehicle. Incubations were initiated by the addition of membrane and were carried out for 30 min at 22° C. Nonspecific binding was defined in the presence of 10 μM BDF-6143, an imidazoline adrenergic agent. Specific α2-adrenergic binding was defined by inhibition with (−)epinephrine (0.1 mM). In experiments using catecholamines, all samples contained ascorbic acid in a final concentration of 0.001%. Incubations were terminated by vacuum filtration using a cell harvester (Brandel) equipped with Teflon tubing to reduce absorption of the radioligand over glass fiber filters (Schleicher & Schuell #34) which were preincubated for 4 h at 4° C. in 0.03% polyethylimine to reduce nonspecific binding to the filter. The filters were washed four times with 5 ml ice-cold Tris-HCl, placed in scintillation vials, covered with 4 ml scintillation cocktail (BioSafe II, Research Products International), and counted at 50% efficiency (Beckman LS5801). Protein was assayed by the bicinchoninic acid method.
(§5) Data were obtained as dpm and transferred to the Equilibrium Binding Data Analysis (EBDA) program for initial processing; 4 to 10 experiments were analyzed simultaneously by using the LIGAND program for nonlinear curve-fitting. Protein assay data were also analyzed by nonlinear curve-fitting.
(§6) Competition binding assays. […]

[6] = test system: I1R; experiment: I1R model: [3H]arachidonic acid release from PC-12 cells; assay type: cell-based
Method: Assays for measuring imidazoline receptor-mediated arachidonic acid release from PC12 cells is as described in Ernsberger et al., (1995, FASEB J. 9:A114).
I1R model: [^3H]Arachidonic acid (AA) release from PC-12 cells. Assays (Emsberger, P. (1998) J. Auton. Nerv. Syst. 72, 147-154 Ernsberger, P. (1998) J. Auton. Nerv. Syst. 72, 147-154) were done after a 30 min washout to attain a stable background. Cells were superfused with 0.01% BSA in Krebs buffer for seven 1-min fractions (baseline), then treated with 10 μM or 100 μM I-4-AA-RP alone, or together with efaroxan (10 μM), a prototypical I1-antagonist/I3-agonist. Controls included baseline release with vehicle alone (0-7 min) or vehicle containing efaroxan (5 min) before adding I-4-AA-RP. [^3H]products (>98% AA) collected in each 1-min fraction were expressed as fractional release defined as % total radioactivity incorporated into cells, corrected for [^3H]AA previously released (Ernsberger, P. (1998) J. Auton. Nerv. Syst. 72, 147-154).

[7] = test system: α2-Adrenergic Sites; experiment: [125I]p-iodoclonidine competition binding to bovine RVLM membranes, α2-adrenergic sites; conditions: for Ki: read-out: Ki, α2-Adrenergic Sites (low affinity sites)
From the text: as §2, §3, §4, §5, §6

[8] = With cimetidine (I-sites masked)

O=C(O)Cc1cn(C2OC(COP(=O)(O)O)C(O)C2O)cn1 [IAA-RP, 1-(β-D-ribofuranosyl)-imidazole-4-acetic acid 5′ phosphate]
EC50 [1]: ~0.003 µM | reversal of the inhibitory action of diazoxide on glucose-induced insulin release [2]: overcame inhibitory effects of the KATP-channel agonist, diazoxide | reversal of the inhibitory action of diazoxide on glucose-induced insulin release ([2]; listed as tele-linked IAA-RP): able to reverse the inhibitory action of diazoxide | stimulation of insulin release (in words) ([2]; rat islets): potent stimulants of insulin release; also recorded: increased insulin secretion from islets; also recorded: far more potent than efaroxan | EC50 ([2]; rat islets, glucose 20 mM and diazoxide 200 μM): 0.03 to 0.05 µM | stimulation of insulin release [3]: capable of stimulating insulin release | rise of MAP over baseline ([4]; SH rats, 100 nmol bilateral microinjection into RVLM): ~25 mm Hg | change of heart rate (HR) ([4]; SH rats, 100 nmol into RVLM): no significant changes | MAP elevation above baseline ([4]; SH rats, after six 100 nmol doses): 20.4±5.6% | affinity of high-affinity RVLM sites relative to low-affinity RVLM sites and adrenal I1R sites [5]: > 100 fold | fold greater affinity than IAA-R in displacing [125I]p-iodoclonidine [5]: > 100 fold | Percent Sites, Imidazoline I Sites (high affinity component) ([5]; Control (no masking ligand)): 71% and 71±5% | Ki ([5]; Control (no masking ligand)): 0.16 ± 0.038 µM | selectivity for I-Rs over α2-sites ([5]; RVLM): > 1000 fold | Percent Sites, Imidazoline I Sites (high affinity component) ([5]; With epinephrine (α2Rs masked)): 86% and 86±4% | Ki ([5]; With epinephrine (α2Rs masked)): 0.1 ± 0.019 µM | increase of [3H]AA release ([6]; 10 μM): 68±29% | increase of [3H]AA release ([6]; 100 μM): 177±89% | stimulation of [3H]AA release (in words) ([6]; IAA-R 10 μM-1 mM): stimulated release of arachidonic acid | Percent Sites, α2-Adrenergic Sites ([7]; Control (no masking ligand)): 29 ± 5% | Ki ([7]; Control (no masking ligand)): 57 ± 33 µM | Percent Sites, α2-Adrenergic Sites [7, 8]: 100 ± 10% | Ki [7, 8]: 210 ± 32 µM | Percent Sites, α2-Adrenergic Sites ([7]; With epinephrine (α2Rs masked)): 14 ± 4% | Ki ([7]; With epinephrine (α2Rs masked)): 60 ± 48 µM | fold lower affinity of remaining (low affinity) sites versus high affinity component ([7]; no masking ligands): > 300 fold

COc1nc(C)nc(Cl)c1N=C1NCCN1 [MOX, moxonidine, reference compound]
lowering of MAP ([4]; SH rats with IAA-RP-elevated MAP, 4 nmol, within 30 min): 37.3±6.3% | reversal of IAA-RP's hypertensive effect ([4]; SH rats, 4 nmol microinjected): completely reversed IAA-RP's effect

O=C(O)Cc1cncn1[C@@H]1O[C@H](CO)[C@@H](O)[C@H]1O [pros-IAA-R, 1-(β-D-ribofuranosyl)-imidazole-5-acetic acid]
reversal of the inhibitory action of diazoxide on glucose-induced insulin release [2]: able to reverse the inhibitory action of diazoxide | stimulation of insulin release (in words) ([2]; rat islets): effects similar to or even greater than that seen with tele IAA-RP
